± gives the expanded uncertainty stated by the source. Values belong to the molecule of their own block, whether it stands above or below them.
Test: wn = mass fraction of the nth substance listed
Conditions: 88.35 kPa, Liquid; for viscosity: Capillary tube (Ostwald / Ubbelohde) method

- viscosity (298.15 K, w1 = 0.2075): 1.198 ± 0.12 mPa·s
- mass density (298.15 K, Weighing bottle method, w1 = 0.2075): 1144 ± 11 kg/m3
- viscosity (313.15 K, w1 = 0.2579): 1.013 ± 0.1 mPa·s
- mass density (313.15 K, Weighing bottle method, w1 = 0.2579): 1187.2 ± 12 kg/m3
Compound: O=P([O-])(O)O.[K+] [monopotassium phosphate] + O

- viscosity (298.15 K, w1 = 0.2672): 0.8122 ± 0.081 mPa·s
- mass density (298.15 K, Weighing bottle method, w1 = 0.2672): 1180 ± 12 kg/m3
- viscosity (313.15 K, w1 = 0.29): 0.6778 ± 0.068 mPa·s
- mass density (313.15 K, Weighing bottle method, w1 = 0.29): 1192 ± 12 kg/m3
Compound: [Cl-].[K+] [potassium chloride] + O

- viscosity (298.15 K, w1 = 0.1156): 1.015 ± 0.1 mPa·s
- mass density (298.15 K, weighing bottle method, w1 = 0.1156): 1084.3 ± 11 kg/m3
- viscosity (313.15 K, w1 = 0.1337): 0.7917 ± 0.08 mPa·s
- mass density (313.15 K, weighing bottle method, w1 = 0.1337): 1097.7 ± 11 kg/m3
Compound: O=S(=O)([O-])[O-].[K+].[K+] [potassium sulfate] + O
